In article PMC6713164, “Inhibitory effects of flavonoids isolated from Sophora flavescens on indoleamine 2,3-dioxygenase 1 activity” (Journal of Enzyme Inhibition and Medicinal Chemistry, 2019):

How the values were obtained:
IDO1 [1] = target: T1, IDO1 (Homo sapiens, UniProt P14902); test: IDO1 enzyme kinetics assay (Lineweaver–Burk, Dixon plots); assay type: biochemical; details: L-Trp 0–50 µM, flavonoids 0–45 µM, read-out: κi
Procedure: The kinetics assay was performed by adding purified protein to the reaction mixture (200 µL) which contained a final concentration of potassium phosphate buffer (50 mM, pH 6.5), ascorbic acid (20 mM), catalase (10 mM), methylene blue (10 µM), and distilled water up to 200 µL. Various concentrations of L-Trp as substrate of IDO1 were added to the reaction mixture with four different concentrations of flavonoids (0–45 µM). After incubation at 37 °C for 1 h, the dissociation constant (κi) of the three flavonoids were determined by measuring the activity at five concentrations of L-Trp (0 to 50 µM).

IDO1 [2] = target: T1, IDO1; test: Thermal shift assay (SYPRO-Orange); assay type: binding; details: 30 µM compound, without L-Trp; read-out: increase of mean melting temperature (ΔTm) compared to DMSO-treated group
Procedure: The thermal stability of proteins was measured by SYPRO-Orange (Thermo Fisher Scientific, Waltham, MA) as previously described in Soderhole et al.[24]. Briefly, IDO 1 enzyme (5 µg/mL) was mixed with 30 µM of kushenol F (KF, 4), (2S)-2'-methoxy kurarinone (MK, 5), and kushenol E (KE, 6), or serially diluted KE (6) in 20 µL reaction buffer containing potassium phosphate buffer (50 mM) and sodium chloride (100 mM), and then incubated for 1 h. The measurement of protein denaturation via an increase in temperature was determined using real-time PCR device (CFX96 Real Time System, BioRad, Hercules, CA) using the FRET channel. In the presence of IDO1 enzyme, SYPRO-Orange has a maximum excitation near 490 nm and a maximum emission near 600 nm. The heating rate and fluorescence reading were 0.5 °C/10 s depending on the temperature range 25–95 °C.

IDO1 [3] = target: T1, IDO1; test: Cell-based IDO1 assay (Kyn production) in IFN-γ-treated HeLa cells; parameters: to induce endogenous IDO1 expression; endogenous in cells; host or cells: HeLa cells stimulated with IFN-γ; details: IFN-γ-treated (50 ng/mL, 24 h) HeLa cells, compound 6 h; mean ± SD; read-out: IC50 against cell-based IDO1 (Kyn production)
Procedure: HeLa (Human cervical cancer cells) cells were purchased from the American Type Culture Collection (ATCC) and cultured in DMEM supplemented with fetal bovine serum (FBS, 10%) and penicillin–streptomycin (1%).
HeLa cells were seeded into 48-well plates (2 × 10^4 cells/well). Next, the cells were stimulated with human recombinant IFN-γ (50 ng/mL, R&D Systems, Minneapolis, MN) in complete DMEM for 24 h. After replacing the medium with DMEM containing IFN-γ, the cells were treated with the flavonoids (1–6) or DMSO (0.5%, v/v) for 6 h, and then the supernatant (125 µL) from each well was transferred to a 96-well plate. The cell-based assay was similarly performed to the IDO1 enzyme assay.

IDO1 [4] = target: T1, IDO1; test: IDO1 enzyme assay; assay type: biochemical; parameters: The full-length of IDO1 gene was amplified by PCR; His tag; made in house; host or cells: Escherichia coli T7 strain, vector pET28a; details: recombinant human IDO1, L-Trp 200 µM, 37 °C, 1 h, mean ± SD; for IC50: read-out: His-hIDO1 IC50
Text: The Escherihia coli DH5α and T7 strain were used for gene cloning and protein production, respectively. The human IDO1 clone was provided from Korea Human Gene Bank, Medical Genomics Research Center, KRIBB, Korea. The full-length of IDO1 gene was amplified by PCR using pfu DNA polymerase (Thermo Fisher, , Waltham, MA). The PCR product from IDO1 mRNA was cloned into expression vector pET28a to obtain pET28a-IDO1 and confirmed using DNA sequencing (Cosmogenetech, Seoul, Korea). […] The expressed IDO1 protein was purified using Ni-NTA agarose (Qiagen, Valencia, CA) at 4 °C. The eluted IDO1 protein was dialysed using storage buffer (20 mM Tris-HCl buffer (pH 8.0 and 200 mM NaCl)). The purified IDO1 protein was analysed with SDS-PAGE.
The enzyme assays were performed with previous descripted in Takikawa et al.[23]. Briefly, 200 µL of the reaction mixture contained potassium phosphate buffer (50 mM, pH 6.5), ascorbic acid (20 mM), methylene blue (10 µM), catalase (10 mM), purified recombinant human IDO1 enzyme (5 µg/mL) and L-Trp (200 µM). The metabolites were serially diluted in dimethyl sulfoxide (DMSO, 0.5%, v/v) and transferred to a 96-well plates. […] The plates were centrifuged at 4000 rpm for 15 min to remove debris. Next, the supernatant (125 µL) from each well was transferred to a 96-well plates. p-dimethylaminobenzaldehyde (125 µL; 2%, v/v) in acetic acid was then added to each well, and the absorbance value of the plate was read at a wavelength of 480 nm using a SpectraMAX-190 ELISA reader (Molecular Devices, Sunnyvale, CA).

His-IDO1 (WT) = target: T2, His-IDO1 (WT) (Homo sapiens, UniProt P14902); test: Surface plasmon resonance (SPR) assay, His-IDO1 (WT); assay type: binding
T2 construct: The full-length of IDO1 gene was amplified by PCR; His tag; made in house; host or cells: Escherichia coli T7 strain, vector pET28a
T2 sequence (P14902 whole entry): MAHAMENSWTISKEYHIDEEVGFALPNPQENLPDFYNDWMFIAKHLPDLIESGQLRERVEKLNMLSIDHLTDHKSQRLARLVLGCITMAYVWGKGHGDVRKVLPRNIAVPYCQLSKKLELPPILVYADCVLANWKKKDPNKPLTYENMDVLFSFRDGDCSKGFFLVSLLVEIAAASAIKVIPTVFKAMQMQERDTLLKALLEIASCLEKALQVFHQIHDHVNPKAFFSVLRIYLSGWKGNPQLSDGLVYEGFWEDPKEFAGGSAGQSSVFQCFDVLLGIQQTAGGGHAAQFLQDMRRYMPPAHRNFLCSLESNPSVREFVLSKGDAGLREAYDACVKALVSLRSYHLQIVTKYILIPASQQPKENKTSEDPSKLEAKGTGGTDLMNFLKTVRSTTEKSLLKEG
Procedure: (§1) The SPR assay was performed with 10 mM stock solution and five serially diluted concentrations of KE (6) in PBS and 5% DMSO at 25 °C using a Reichert instrument (SR7500DC System, USA) using a sensor chip CM5 (GE Healthcare, Chicago, IL) (Woojung BSC Inc, Seoul, Korea). Amine coupling of His-IDO1 (WT and P314A) was performed with 0.2 M 1-ethyl-3-(3-dimethylaminopropyl)-carbodiimide, 0.05 M N-hydroxysuccinimide, and 1 M ethanolamine (ph 8.5, GE Healthcare, Chicago, IL). The results were analysed using Scrubber software (version 2.0, BioLogic Software, Mundelein, IL).

His-IDO1 (P314A) [5] = target: T3, His-IDO1 (P314A) (Homo sapiens, UniProt P14902, P314A); test: Surface plasmon resonance (SPR) assay, His-IDO1 (P314A); assay type: binding
T3 construct: The full-length of IDO1 gene was amplified by PCR; His tag; made in house
T3 sequence (P14902 whole entry P314A): as the sequence (P14902 whole entry) above, with P314A counted along it
Procedure: as §1
(§2) Point mutations were introduced using the Muta-Direct^TM mutagenesis kit (iNtRON, Seuol, Korea). Oligonucleotides for generation of Pro182 (P182A), Phe185 (F185A), double mutation (P182A and F185A), and Pro 314 (P314A) to alanine mutants (mutated residues are underlined) were as follows: • For P182A: 5′-[…]-3′, 5′-[…]-3′. • For F185A: 5′-[…]-3′, 5′-[…]-3′. • For double mutation (P182A and F185A): 5′-[…]-3′, 5′-[…]-3′. • For P314A: 5′- […]-3′, 5′- […]-3′.

His-IDO1 (P314A) [6] = target: T3, His-IDO1 (P314A); test: Mutagenesis assay: IDO1 enzyme assay with P314A mutant; assay type: biochemical; details: mutant form of His-IDO1 (P314A)
Procedure: The enzyme assays were performed with previous descripted in Takikawa et al.[23]. […]. The metabolites were serially diluted in dimethyl sulfoxide (DMSO, 0.5%, v/v) and transferred to a 96-well plates. The reaction was conducted at 37 °C for 1 h and stopped by adding 40 µL of trichloroacetic acid (30%); the solution was then heated at 65 °C for 15 min. The plates were centrifuged at 4000 rpm for 15 min to remove debris. Next, the supernatant (125 µL) from each well was transferred to a 96-well plates. p-dimethylaminobenzaldehyde (125 µL; 2%, v/v) in acetic acid was then added to each well, and the absorbance value of the plate was read at a wavelength of 480 nm using a SpectraMAX-190 ELISA reader (Molecular Devices, Sunnyvale, CA).
as §2

[7] = standard error in parentheses, read-out: Ka

T1 sequence (P14902 whole entry): as the sequence (P14902 whole entry) above

Compound | Ki (IDO1 [1]) [µM] | ΔTm at 30 µM (IDO1 [2]) [°C] | IC50 (IDO1 [3]) [µM] | IC50 (IDO1 [4]) [µM] | also measured
C=C(C)[C@H](CC=C(C)C)Cc1c(O)cc(OC)c2c1O[C@H](c1ccc(O)cc1OC)CC2=O [(2S)-2′-Methoxy kurarinone (MK, 5), (2S)-2'-methoxy kurarinone] | 13.7 ± 0.03 | 0.4 | 23.8 ± 1.6 | 31.4 ± 1.3 | 
C=C(C)[C@H](CC=C(C)C)Cc1c(O)cc(OC)c2c1O[C@H](c1ccc(O)cc1O)CC2=O [(−)-Kurarinone (3), (−)-kurarinone] |  |  | 74.9 ± 4.9 | 23.4 ± 1.3 | 
CC(C)=CCc1c(O)c(CC=C(C)C)c2c(c1O)C(=O)C[C@@H](c1ccc(O)cc1O)O2 [Kushenol E (KE, 6), kushenol E] | 9.5 ± 0.6 | 5.7 | 4.3 ± 0.3 | 7.7 ± 6.2 | Kd (His-IDO1 (WT); 25 °C, PBS 5% DMSO): 6.5 ± 0.1 µM; kon (His-IDO1 (WT); [7]): 136 M⁻¹ s⁻¹; Kd (His-IDO1 (P314A) [5]; 25 °C, PBS 5% DMSO): 8.9 ± 0.2 µM; kon (His-IDO1 (P314A) [5]; [7]): 120 M⁻¹ s⁻¹; IC50 (His-IDO1 (P314A) [6]): 29.8 ± 1.8 µM
C=C(C)[C@H](CC=C(C)C)Cc1c(O)cc(O)c2c1O[C@H](c1ccc(O)cc1O)CC2=O [Kushenol F (KF, 4), kushenol F] | 20.2 ± 3.1 | 1.5 | 28.3 ± 0.3 | 25.4 ± 4.4 | 
CC(C)=CCc1c(O)cc(O)c2c(=O)c(O)c(-c3ccc(O)cc3)oc12 [Noranhydroicaritin (1), noranhydroicaritin] |  |  | 42.2 ± 3.5 | 23.5 ± 2.2 | 
CC(C)=CCc1c(O)cc(O)c2c1OC(c1ccc(O)cc1)CC2=O (stereo not drawn) [Sophoraflavanone B (2), sophoraflavanone B] |  |  | 83.6 ± 10.8 | 19.3 ± 1.1 | 
O=C1CC(c2ccc(O)cc2O)Oc2cc(O)cc(O)c21 (stereo not drawn) [Steppogenin, steppogenin, reference compound] |  |  |  |  | His-hIDO1 IC50 (IDO1 [4]): does not affect IDO1 inhibitory activity
